Data from US11976083B2, “Inhibitors of peptidylarginine deiminases” (Gilead Sciences, Inc., priority 2020, dated 2024).

target: T1, human PAD4 (Homo sapiens, UniProt Q9UM07); assay: In vitro PAD4 BAEE biochemical assay; settings: BAEE substrate 3 mM, 5 nM PAD4, 2 mM calcium chloride; geometric mean of multiple experiments
T1 construct: human PAD4 (NM_012387), A2-P663, was PCR amplified; His-SUMO (N, cleaved yes); made in house; host or cells: E. coli BL21(DE3)
How it was run: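 Ammonia produced by BAEE deimination (3 mM substrate, 2 h, 25 °C) was read as fluorescent isoindole after o-phthalaldehyde/DTT derivatization, ex 405 nm/em 535 nm. Human PAD4 at 5 nM final, 2 mM calcium, pH 7.6 MOPS; compound preincubated 30 min. IC50s, normalized to BB-Cl-Amidine and DMSO controls, were geometric-mean averaged.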

T1 sequence (Q9UM07 2-663): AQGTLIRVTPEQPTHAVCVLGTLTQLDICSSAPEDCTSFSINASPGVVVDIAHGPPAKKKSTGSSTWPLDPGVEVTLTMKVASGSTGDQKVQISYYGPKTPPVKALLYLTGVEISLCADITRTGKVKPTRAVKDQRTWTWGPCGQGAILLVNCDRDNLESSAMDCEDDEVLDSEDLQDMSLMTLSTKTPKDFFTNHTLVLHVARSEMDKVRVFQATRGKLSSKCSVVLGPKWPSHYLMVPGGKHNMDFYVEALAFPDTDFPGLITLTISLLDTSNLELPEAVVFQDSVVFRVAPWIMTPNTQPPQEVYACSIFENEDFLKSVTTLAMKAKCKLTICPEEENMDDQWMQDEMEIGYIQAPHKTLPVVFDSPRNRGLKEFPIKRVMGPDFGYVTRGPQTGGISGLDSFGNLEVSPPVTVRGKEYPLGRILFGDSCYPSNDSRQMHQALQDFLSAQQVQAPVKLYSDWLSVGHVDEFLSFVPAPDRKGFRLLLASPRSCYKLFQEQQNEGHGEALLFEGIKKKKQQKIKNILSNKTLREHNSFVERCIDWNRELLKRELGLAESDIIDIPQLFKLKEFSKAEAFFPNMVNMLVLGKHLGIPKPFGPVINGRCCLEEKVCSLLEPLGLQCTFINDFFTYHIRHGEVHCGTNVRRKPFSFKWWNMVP

Row | Structure (SMILES) | IC50 [nM]
1 | COc1cc(C(=O)N2[C@H]3CC[C@@H]2[C@H](N)C3)cc2nc(-c3cc4ccc5nc4n3C[C@H]3C[C@H]3CC[C@@H]3C[C@H]3C(=O)N[C@@H]5C)n(C)c12 [Example 142, (3~{S),5~{R},8~{R},10~{R},13~{R})-19-[5-[(1~{R},2~{R},4~{S})-2-amino-7-azabicyclo[2.2.1]heptane-7-carbonyl]-7-methoxy-1-methyl-benzimidazol-2-yl]-13-methyl-1,12,21-triazapentacyclo[12.5.2.0^{3,5}.0^{8,10}.0^ {17,20}]henicosa-14(21),15,17(20),18-tetraen-11-one] | 28
2 | COc1cc(C(=O)N2[C@H]3CC[C@@H]2[C@H](N)C3)cc2nc(-c3cc4ccc5nc4n3C[C@H]3C[C@H]3CC[C@H]3C[C@@H]3C(=O)N[C@@H]5C)n(C)c12 [Example 143, (3~{S),5~{R},8~{S},10~{S},13~{R})-19-[5-[(1~{R},2~{R},4~{S})-2-amino-7-azabicyclo[2.2.1]heptane-7-carbonyl]-7-methoxy-1-methyl-benzimidazol-2-yl]-13-methyl-1,12,21-triazapentacyclo[12.5.2.0^{3,5}.0^{8,10}.0^ {17,20}]henicosa-14(21),15,17(20),18-tetraen-11-one] | 158
3 | COc1cc(C(=O)N2[C@H]3CC[C@@H]2[C@H](N)C3)cc2nc(-c3cc4ccc5nc4n3C[C@H]3C[C@H]3CCCCC(=O)N[C@@H]5C)n(C)c12 [Example 144, (3~{S),5~{R},12~{R})-18-[5-[(1~{R},2~{R},4~{S})-2-amino-7-azabicyclo[2.2.1]heptane-7-carbonyl]-7-methoxy-1-methyl-benzimidazol-2-yl]-12-methyl-1,11,20-triazatetracyclo[11.5.2.0^{3,5}.0^{16,19}] icosa-13(20),14,16(19),17-tetraen-10-one] | 31
4 | COc1cc(C(=O)N2[C@H]3CC[C@@H]2[C@H](N)C3)cc2nc(-c3cc4ccc5nc4n3C[C@H]3C[C@H]3CCCC(C)(C)C(=O)N[C@@H]5C)n(C)c12 [Example 145, (3~{S},5~{R},12~{R})-18-[5-[(1~{R},2~{R},4~{S})-2-amino-7-azabicyclo[2.2.1]heptane-7-carbonyl]-7-methoxy-1-methyl-benzimidazol-2-yl]-9,9,12-trimethyl-1,11,20-triazatetracyclo[11.5.2.0^{3,5}.0^{16,19}] icosa-13(20),14,16(19),17-tetraen-10-one] | 58
5 | COc1cc(C(=O)N2CCC[C@@H](N)C2)cc2nc(-c3cc4ccc5nc4n3CCCCCCCN(C)C(=O)N[C@@H]5C)c(C)n12 [Example 146, (12~{R})-18-[7-[(3~{R})-3-aminopiperidine-1-carbonyl]-5-methoxy-3-methyl-imidazo[1,2-a]pyridin-2-yl]-9,12-dimethyl-1,9,11,20-tetrazatricyclo[11.5.2.0^{16,19}]icosa-13(20),14,16(19),17-tetraen-10-one] | 47
6 | COc1cc(C(=O)N2CCC[C@@H](N)C2)cc2nc(-c3cc4ccc5nc4n3CCCCCCOc3ccccc3C(=O)N[C@@H]5C)c(C)n12 [Example 147, (2~{R})-19-[7-[(3~{R})-3-aminopiperidine-1-carbonyl]-5-methoxy-3-methyl-imidazo[1,2-a]pyridin-2-yl]-2-methyl-11-oxa-3,18,24-triazatetracyclo [16.5.2.0^{5,10}.0^{21,25}] pentacosa-1(24),5(10),6,8,19,21(25),22-heptaen-4-one] | 365
7 | COc1cc(C(=O)N2CCC[C@@H](N)C2)cc2nc(-c3cc4ccc5cc4n3CCCCCCC(C)(C)C(=O)N[C@@H]5C)n(C)c12 [Example 148, (11~{R})-17-[5-[(3~{R})-3-aminopiperidine-1-carbonyl]-7-methoxy-1-methyl-benzimidazol-2-yl]-8,8,11-trimethyl-1,10-diazatricyclo [10.5.2.0^{15,18}]nonadeca-12(19),13,15(18),16-tetraen-9-one] | 45
8 | COc1cc(C(=O)N2CCC[C@@H](N)C2)cc2nc(-c3cc4ccc5nc4n3C[C@H]3C[C@@H]3COCCC(=O)N[C@@H]5C)n(C)c12 [Example 149, (3~{S},5~{S},12~{R})-18-[5-[(3~{R})-3-aminopiperidine-1-carbonyl]-7-methoxy-1-methyl-benzimidazol-2-yl]-12-methyl-7-oxa-1,11,20-triazatetracyclo[11.5.2.0^{3,5}.0^{16,19}] icosa-13(20),14,16(19),17-tetraen-10-one] | 46
9 | COc1cc(C(=O)N2CCC[C@@H](N)C2)cc2nc(-c3cc4ccc5nc4n3C[C@@H]3C[C@H]3COCCC(=O)N[C@@H]5C)n(C)c12 [Example 150, (3~{R},5~{R},12~{R})-18-[5-[(3~{R})-3-aminopiperidine-1-carbonyl]-7-methoxy-1-methyl-benzimidazol-2-yl]-12-methyl-7-oxa-1,11,20-triazatetracyclo[11.5.2.0^{3,5}.0^{16,19}] icosa-13(20),14,16(19),17-tetraen-10-one] | 107
10 | COc1cc(C(=O)N2CCC[C@@H](N)C2)cc2nc(-c3cc4ccc5nc4n3CCCC[C@H]3C[C@@H]3C(=O)N[C@@H]5C)n(C)c12 [Example 151, (2~{R},5~{S},7~{S})-13-[5-[(3~{R})-3-aminopiperidine-1-carbonyl]-7-methoxy-1-methyl-benzimidazol-2-yl]-2-methyl-3,12,18-triazatetracyclo[10.5.2.0^{5,7}.0^{15,19}] nonadeca-1(18),13,15(19),16-tetraen-4-one] | 123
11 | COc1cc(C(=O)N2[C@H]3CC[C@@H]2[C@H](N)C3)cc2nc(-c3cc4ccc5nc4n3CCCC[C@H]3C[C@@H]3C(=O)N[C@@H]5C)n(C)c12 [Example 152, (2~{R},5~{S},7~{S})-13-[5-[(1~{R},2~{R},4~{S})-2-amino-7-azabicyclo[2.2.1]heptane-7-carbonyl]-7-methoxy-1-methyl-benzimidazol-2-yl]-2-methyl-3,12,18-triazatetracyclo[10.5.2.0^{5,7}.0^{15,19}] nonadeca-1(18),13,15(19),16-tetraen-4-one] | 43
12 | COc1cc(C(=O)N2CCC[C@@H](N)C2)cc2nc(-c3cc4ccc5nc4n3CCCCC[C@@H](OC)C(C)(C)C(=O)N[C@@H]5C)n(C)c12 [Example 153, (7~{R},11~{R})-17-[5-[(3~{R})-3-aminopiperidine-1-carbonyl]-7-methoxy-1-methyl-benzimidazol-2-yl]-7-methoxy-8,8,11-trimethyl-1,10,19-triazatricyclo[10.5.2.0^{15,18}]nonadeca-12(19),13,15(18),16-tetraen-9-one] | 116
13 | COc1cc(C(=O)N2CCC[C@@H](N)C2)cc2nc(-c3cc4ccc5nc4n3CCCCC[C@H](OC)C(C)(C)C(=O)N[C@@H]5C)n(C)c12 [Example 154, (7~{S},11~{R})-17-[5-[(3~{R})-3-aminopiperidine-1-carbonyl]-7-methoxy-1-methyl-benzimidazol-2-yl]-7-methoxy-8,8,11-trimethyl-1,10,19-triazatricyclo[10.5.2.0^{15,18}]nonadeca-12(19),13,15(18),16-tetraen-9-one] | 57
14 | COc1cc(C(=O)N2CCC[C@@H](N)C2)cc2nc(-c3cc4ccc5cc4n3CCCCCCC3(CC3)C(=O)N[C@@H]5C)n(C)c12 [Example 155, (11~{R})-17-[5-[(3~{R})-3-aminopiperidine-1-carbonyl]-7-methoxy-1-methyl-benzimidazol-2-yl]-11-methyl-spiro[1,10-diazatricyclo[10.5.2.0^{15,18}]nonadeca-12(19),13,15(18),16-tetraene-8,1′-cyclopropane]-9-one] | 77
15 | COc1cc(C(=O)N2CCC[C@@H](N)C2)cc2nc(-c3cc4ccc5cc4n3CCCCCOC(C)(C)C(=O)N[C@@H]5C)n(C)c12 [Example 156, (11~{R})-17-[5-[(3~{R})-3-aminopiperidine-1-carbonyl]-7-methoxy-1-methyl-benzimidazol-2-yl]-8,8,11-trimethyl-7-oxa-1,10-diazatricyclo[10.5.2.0^{15,18}]nonadeca-12(19),13,15(18),16-tetraen-9-one] | 56
16 | COc1cc(C(=O)N2CCC[C@@H](N)C2)cc2nc(-c3cc4ccc5nc4n3CCCCC[C@@H]3C[C@H]3C(=O)N[C@@H]5C)n(C)c12 [Example 157, (2~{R},5~{R},7~{R})-14-[5-[(3~{R})-3-aminopiperidine-1-carbonyl]-7-methoxy-1-methyl-benzimidazol-2-yl]-2-methyl-3,13,19-triazatetracyclo[11.5.2.0^{5,7}.0^{16,20}] icosa-1(19),14,16(20),17-tetraen-4-one] | 36
17 | COc1cc(C(=O)N2CCC[C@@H](N)C2)cc2nc(-c3cc4ccc5nc4n3CCCCC[C@H]3C[C@@H]3C(=O)N[C@@H]5C)n(C)c12 [Example 158, (2~{R},5~{S},7~{S})-14-[5-[(3~{R})-3-aminopiperidine-1-carbonyl]-7-methoxy-1-methyl-benzimidazol-2-yl]-2-methyl-3,13,19-triazatetracyclo[11.5.2.0^{5,7}.0^{16,20}] icosa-1(19),14,16(20),17-tetraen-4-one] | 241
18 | COc1cc(C(=O)N2CCC[C@@H](N)C2)cc2nc(-c3cc4ccc5cc4n3CCCCCCC3(CC3)C(=O)N[C@@H]5C)n(C3CC3)c12 [Example 159, (11~{R})-17-[5-[(3~{R})-3-aminopiperidine-1-carbonyl]-1-cyclopropyl-7-methoxy-benzimidazol-2-yl]-11-methyl-spiro[1,10-diazatricyclo[10.5.2.0^{15,18}]nonadeca-12(19),13,15(18),16-tetraene-8,1′-cyclopropane]-9-one] | 62
19 | COc1cc(C(=O)N2CCC[C@@H](N)C2)cc2nc(-c3cc4ccc5cc4n3CCCCCCC(C)(C)C(=O)N[C@@H]5C)n(C3CC3)c12 [Example 160, (11~{R})-17-[5-[(3~{R})-3-aminopiperidine-1-carbonyl]-1-cyclopropyl-7-methoxy-benzimidazol-2-yl]-8,8,11-trimethyl-1,10-diazatricyclo[10.5.2.0^{15,18}]nonadeca-12(19),13,15(18),16-tetraen-9-one] | 53
